How the values were obtained:
[1] = In vitro immunosuppressive activity measured in the interleukin-2 receptor gene assay (IL-2 RGA) in mitogen-stimulated human T-cell line; relative to FK506
Mus musculus = species on record: Mus musculus; assay: In vitro immunosuppressive activity measured in the mouse mixed lymphocyte reaction (MLR) expressed as relative inhibitory concentration (rIC50) relative to FK506 IC50 (0.3 nM); format: functional
[2] = biological target: Peptidyl-prolyl cis-trans isomerase FKBP1A (Homo sapiens) (UniProt P62942); assay: Immunosuppressive activity in FK506 binding protein 12 binding assay as inhibitory concentration (rIC50) relative to FK506 IC50 (1.2 nM)
Sequence of Peptidyl-prolyl cis-trans isomerase FKBP1A (Homo sapiens) (P62942 whole entry): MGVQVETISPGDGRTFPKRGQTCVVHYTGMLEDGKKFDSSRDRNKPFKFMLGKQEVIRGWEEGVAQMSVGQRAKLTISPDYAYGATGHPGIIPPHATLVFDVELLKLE

With `CC[C@@H]1/C=C(\C)C[C@H](C)C[C@H](OC)[C@H]2O[C@@](O)(C(=O)C(=O)N3CCCC[C@H]3C(=O)O[C@H](/C(C)=C/[C@@H]3CC[C@@H](OC(=S)NC(=O)c4ccc5ccccc5c4)[C@H](OC)C3)[C@H](C)[C@@H](O)CC1=O)[C@H](C)C[C@@H]2OC` as the compound, how does the rIC50 [1] read?
Its rIC50 is 6.5.

And the rIC50 (Mus musculus)?
Its rIC50 is 15.

What about the rIC50 [2] of the same compound?
The rIC50 was 6.6.

With `CC[C@@H]1/C=C(\C)C[C@H](C)C[C@H](OC)[C@H]2O[C@@](O)(C(=O)C(=O)N3CCCC[C@H]3C(=O)O[C@H](/C(C)=C/[C@@H]3CC[C@@H](OC(=S)NC(=O)c4ccccc4)[C@H](OC)C3)[C@H](C)[C@@H](O)CC1=O)[C@H](C)C[C@@H]2OC` as the compound, how does the rIC50 [1] read?
The rIC50 was 3.4.

What about the rIC50 (Mus musculus) of the same compound?
The rIC50 was 11.

And the rIC50 [2]?
Its rIC50 is 6.3.

With `CC[C@@H]1/C=C(\C)C[C@H](C)C[C@H](OC)[C@H]2O[C@@](O)(C(=O)C(=O)N3CCCC[C@H]3C(=O)O[C@H](/C(C)=C/[C@@H]3CC[C@@H](OC(=S)NC(=O)C[C@@H]4OC(C)(C)OC4=O)[C@H](OC)C3)[C@H](C)[C@@H](O)CC1=O)[C@H](C)C[C@@H]2OC` as the compound, how does the rIC50 [1] read?
Its rIC50 is 12.

What about the rIC50 (Mus musculus) of the same compound?
Its rIC50 is 12.

And the rIC50 [2]?
Its rIC50 is 0.9.

Which results are given for `CC[C@@H]1/C=C(\C)C[C@H](C)C[C@H](OC)[C@H]2O[C@@](O)(C(=O)C(=O)N3CCCC[C@H]3C(=O)O[C@H](/C(C)=C/[C@@H]3CC[C@@H](OC(=S)NC(=O)CCC(=O)OC)[C@H](OC)C3)[C@H](C)[C@@H](O)CC1=O)[C@H](C)C[C@@H]2OC`?
rIC50 [1]: 4.6; rIC50 (Mus musculus): 19; rIC50 [2]: 1.6

Which rIC50 [1] does the source give for `CC[C@@H]1/C=C(\C)C[C@H](C)C[C@H](OC)[C@H]2O[C@@](O)(C(=O)C(=O)N3CCCC[C@H]3C(=O)O[C@H](/C(C)=C/[C@@H]3CC[C@@H](O)[C@H](OC)C3)[C@H](C)[C@@H](O)CC1=O)[C@H](C)C[C@@H]2OC` [ASCOMYCIN] here?
Its rIC50 is 1.7.

And the rIC50 (Mus musculus)?
The rIC50 was 1.9.

And the rIC50 [2]?
Its rIC50 is 0.9.

Which rIC50 [1] does the source give for `CC[C@@H]1/C=C(\C)C[C@H](C)C[C@H](OC)[C@H]2O[C@@](O)(C(=O)C(=O)N3CCCC[C@H]3C(=O)O[C@H](/C(C)=C/[C@@H]3CC[C@@H](OC(=S)NC(=O)c4ccc(C(=O)OC)cc4)[C@H](OC)C3)[C@H](C)[C@@H](O)CC1=O)[C@H](C)C[C@@H]2OC` here?
The rIC50 was 9.

What about the rIC50 (Mus musculus) of the same compound?
The rIC50 was 8.4.

What about the rIC50 [2] of the same compound?
The rIC50 was 7.3.

What does the source list for `CC[C@@H]1/C=C(\C)C[C@H](C)C[C@H](OC)[C@H]2O[C@@](O)(C(=O)C(=O)N3CCCC[C@H]3C(=O)O[C@H](/C(C)=C/[C@@H]3CC[C@@H](OC(=O)NNc4ccccc4)[C@H](OC)C3)[C@H](C)[C@@H](O)CC1=O)[C@H](C)C[C@@H]2OC`?
rIC50 [1]: 0.7; rIC50 (Mus musculus): 2.5; rIC50 [2]: 1.5

Which results are given for `C=CC[C@@H]1/C=C(\C)C[C@H](C)C[C@H](OC)[C@H]2O[C@@](O)(C(=O)C(=O)N3CCCC[C@H]3C(=O)O[C@H](/C(C)=C/[C@@H]3CC[C@@H](O)[C@H](OC)C3)[C@H](C)[C@@H](O)CC1=O)[C@H](C)C[C@@H]2OC` [TACROLIMUS ANHYDROUS]?
rIC50 [1]: 1; rIC50 (Mus musculus): 1; rIC50 [2]: 1

With `CC[C@@H]1/C=C(\C)C[C@H](C)C[C@H](OC)[C@H]2O[C@@](O)(C(=O)C(=O)N3CCCC[C@H]3C(=O)O[C@H](/C(C)=C/[C@@H]3CC[C@@H](OC(=S)NC(=O)c4ccco4)[C@H](OC)C3)[C@H](C)[C@@H](O)CC1=O)[C@H](C)C[C@@H]2OC` as the compound, how does the rIC50 [1] read?
The rIC50 was 3.5.

And the rIC50 (Mus musculus)?
Its rIC50 is 7.6.

And the rIC50 [2]?
Its rIC50 is 3.4.

What does the source list for `CC[C@@H]1/C=C(\C)C[C@H](C)C[C@H](OC)[C@H]2O[C@@](O)(C(=O)C(=O)N3CCCC[C@H]3C(=O)O[C@H](/C(C)=C/[C@@H]3CC[C@@H](OC(=O)NC(=O)c4ccccc4)[C@H](OC)C3)[C@H](C)[C@@H](O)CC1=O)[C@H](C)C[C@@H]2OC`?
rIC50 [1]: 1.2; rIC50 (Mus musculus): 2.9; rIC50 [2]: 1.3

With `CC[C@@H]1/C=C(\C)C[C@H](C)C[C@H](OC)[C@H]2O[C@@](O)(C(=O)C(=O)N3CCCC[C@H]3C(=O)O[C@H](/C(C)=C/[C@@H]3CC[C@@H](OC(=S)N(C)C(=O)CCC(=O)OC)[C@H](OC)C3)[C@H](C)[C@@H](O)CC1=O)[C@H](C)C[C@@H]2OC` as the compound, how does the rIC50 [1] read?
Its rIC50 is 6.9.

What about the rIC50 (Mus musculus) of the same compound?
Its rIC50 is 36.

And the rIC50 [2]?
Its rIC50 is 2.7.

From ChEMBL document CHEMBL1132673, “Preparation and immunosuppressive activity of 32-(O)-acylated and 32-(O)-thioacylated analogues of ascomycin” (1999)
